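Method: 48-hour compound exposure of cells in 96-well plates, five concentrations, linear interpolation of endpoints. GI50 marks 50% less growth. TGI denotes the concentration required for complete inhibition of growth.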
Experiments:
Test in all cases: NCI anticancer screen, dose series, 48 h
[1] = test system: 786-0 renal
[2] = test system: A498 renal
[3] = test system: A549 NSCLC
[4] = test system: ACHN renal
[5] = test system: BT-549 breast
[6] = test system: CAKI-1 renal
[7] = test system: CCRF-CEM leukemia
[8] = test system: COLO 205 colon
[9] = test system: DU-145 prostate
[10] = test system: HCC-2998 colon
[11] = test system: HCT-116 colon
[12] = test system: HCT-15 colon
[13] = test system: HL-60(TB) leukemia
[14] = test system: HOP-62 NSCLC
[15] = test system: HOP-92 NSCLC
[16] = test system: HS 578T breast
[17] = test system: HT29 colon
[18] = test system: IGROV1 ovarian
[19] = test system: K-562 leukemia
[20] = test system: KM12 colon
[21] = test system: LOX IMVI melanoma
[22] = test system: M14 melanoma
[23] = test system: MALME-3M melanoma
[24] = test system: MCF7 breast
[25] = test system: MDA-MB-231 breast
[26] = test system: MDA-MB-435
[27] = test system: MOLT-4 leukemia
[28] = test system: NCI-H226 lung
[29] = test system: NCI-H23 lung
[30] = test system: NCI-H460 lung
[31] = test system: NCI-H522 lung
[32] = test system: NCI/ADR-RES ovarian
[33] = test system: OVCAR-3 ovarian
[34] = test system: OVCAR-4 ovarian
[35] = test system: OVCAR-5 ovarian
[36] = test system: OVCAR-8 ovarian
[37] = test system: PC-3 prostate
[38] = test system: RPMI-8226 leukemia
[39] = test system: RXF 393 renal
[40] = test system: SF-268 CNS
[41] = test system: SF-539 CNS
[42] = test system: SK-MEL-2 melanoma
[43] = test system: SK-MEL-28 melanoma
[44] = test system: SK-MEL-5 melanoma
[45] = test system: SK-OV-3 ovarian
[46] = test system: SN12C renal
[47] = test system: SNB-19 CNS
[48] = test system: SNB-75 CNS
[49] = test system: SR leukemia
[50] = test system: SW-620 colon
[51] = test system: T-47D breast
[52] = test system: TK-10 renal
[53] = test system: U251 CNS
[54] = test system: UACC-257 melanoma
[55] = test system: UACC-62 melanoma
[56] = test system: UO-31 renal
[57] = test system: EKVX NSCLC
[58] = test system: SF-295 CNS

## COc1ccc(-c2nc(-c3nc4ccc(C)cc4[nH]3)cc3c2[nH]c2ccccc23)cc1
[1]
  GI50: 19.3 µM
  TGI: > 100 µM
[2]
  GI50: 2.36 µM
  TGI: > 100 µM
[3]
  GI50: 3.43 µM
  TGI: > 100 µM
[4]
  GI50: 3.05 µM
  TGI: > 100 µM
[5]
  GI50: 6.88 µM
  TGI: > 100 µM
[6]
  GI50: 3.28 µM
  TGI: > 100 µM
[7]
  GI50: 2.94 µM
  TGI: 18.7 µM
[8]
  GI50: 2.83 µM
  TGI: 8.21 µM
[9]
  GI50: 5.02 µM
  TGI: > 100 µM
[10]
  GI50: 7.61 µM
  TGI: > 100 µM
[11]
  GI50: 3.55 µM
  TGI: 40.6 µM
[12]
  GI50: 3.2 µM
  TGI: > 100 µM
[13]
  GI50: 4.11 µM
  TGI: 37.7 µM
[14]
  GI50: 5.78 µM
  TGI: > 100 µM
[15]
  GI50: 2.17 µM
  TGI: 8.11 µM
[16]
  GI50: 4.94 µM
  TGI: > 100 µM
[17]
  GI50: 5.29 µM
  TGI: > 100 µM
[18]
  GI50: 3.58 µM
  TGI: > 100 µM
[19]
  GI50: 3.09 µM
  TGI: > 100 µM
[20]
  GI50: 3.26 µM
  TGI: 14 µM
[21]
  GI50: 3.34 µM
  TGI: 17.1 µM
[22]
  GI50: 3.09 µM
  TGI: 11.7 µM
[23]
  GI50: 5.1 µM
  TGI: 72.5 µM
[24]
  GI50: 3.06 µM
  TGI: 56.3 µM
[25]
  GI50: 6.88 µM
  TGI: > 100 µM
[26]
  GI50: 3.94 µM
  TGI: > 100 µM
[27]
  GI50: 2.31 µM
  TGI: 10 µM
[28]
  GI50: 4.81 µM
  TGI: 58.7 µM
[29]
  GI50: 5.36 µM
  TGI: > 100 µM
[30]
  GI50: 2.99 µM
  TGI: > 100 µM
[31]
  GI50: 4.39 µM
  TGI: 42.1 µM
[32]
  GI50: 3.72 µM
  TGI: > 100 µM
[33]
  GI50: 3.59 µM
  TGI: 12 µM
[34]
  GI50: 4.09 µM
  TGI: > 100 µM
[35]
  GI50: 6.83 µM
  TGI: > 100 µM
[36]
  GI50: 3.02 µM
  TGI: > 100 µM
[37]
  GI50: 2.74 µM
  TGI: > 100 µM
[38]
  GI50: 1.85 µM
  TGI: 5.31 µM
[39]
  GI50: 3.82 µM
  TGI: > 100 µM
[40]
  GI50: 6.8 µM
  TGI: > 100 µM
[41]
  GI50: 3.92 µM
  TGI: > 100 µM
[42]
  GI50: 3.11 µM
  TGI: 9.22 µM
[43]
  GI50: 5 µM
  TGI: > 100 µM
[44]
  GI50: 3.12 µM
  TGI: 12.6 µM
[45]
  GI50: 61 µM
  TGI: > 100 µM
[46]
  GI50: 3.96 µM
  TGI: > 100 µM
[47]
  GI50: 7.28 µM
  TGI: > 100 µM
[48]
  GI50: 3.43 µM
  TGI: > 100 µM
[49]
  GI50: 2.68 µM
  TGI: 27.8 µM
[50]
  GI50: 6.23 µM
  TGI: > 100 µM
[51]
  GI50: 3.67 µM
  TGI: 19.2 µM
[52]
  GI50: 5.45 µM
  TGI: > 100 µM
[53]
  GI50: 3.42 µM
  TGI: > 100 µM
[54]
  GI50: 3.94 µM
  TGI: > 100 µM
[55]
  GI50: 3.34 µM
  TGI: 23.1 µM
[56]
  GI50: 2.99 µM
  TGI: > 100 µM

## O=C1/C(=C/c2ccc(F)cc2)CN(C(=O)CCN2CCC(=NO)CC2)C/C1=C\c1ccc(F)cc1
[1]
  GI50: 1.48 µM
  TGI: 3.45 µM
[2]
  GI50: 1.31 µM
  TGI: 2.63 µM
[3]
  GI50: 4.09 µM
  TGI: 11.2 µM
[4]
  GI50: 1.08 µM
  TGI: 2.86 µM
[5]
  GI50: 1.58 µM
  TGI: 3.21 µM
[6]
  GI50: 1.57 µM
  TGI: 3.92 µM
[7]
  GI50: 0.514 µM
  TGI: > 57.6 µM
[8]
  GI50: 1.94 µM
  TGI: 5.5 µM
[9]
  GI50: 2.26 µM
  TGI: 5.17 µM
[57]
  GI50: 2.19 µM
  TGI: 5.9 µM
[10]
  GI50: 1.5 µM
  TGI: 3.08 µM
[11]
  GI50: 0.413 µM
  TGI: 0.861 µM
[12]
  GI50: 0.691 µM
  TGI: 2.6 µM
[13]
  GI50: 2.26 µM
  TGI: 7.95 µM
[14]
  GI50: 2.34 µM
  TGI: 6.02 µM
[15]
  GI50: 3.21 µM
  TGI: 7.39 µM
[16]
  GI50: 1.71 µM
  TGI: 6.51 µM
[17]
  GI50: 0.845 µM
  TGI: 2.61 µM
[18]
  GI50: 1.43 µM
  TGI: 3.42 µM
[19]
  GI50: 0.408 µM
  TGI: > 49.7 µM
[20]
  GI50: 0.537 µM
  TGI: 1.33 µM
[21]
  GI50: 0.409 µM
  TGI: 0.922 µM
[22]
  GI50: 1.17 µM
  TGI: 3.69 µM
[23]
  GI50: 1.86 µM
  TGI: 4.89 µM
[24]
  GI50: 0.768 µM
  TGI: 4.59 µM
[25]
  GI50: 1.37 µM
  TGI: 3.54 µM
[26]
  GI50: 0.827 µM
  TGI: 2.72 µM
[27]
  GI50: 0.699 µM
  TGI: 7.97 µM
[28]
  GI50: 2.55 µM
  TGI: 8.51 µM
[29]
  GI50: 1.92 µM
  TGI: 4.47 µM
[30]
  GI50: 2.02 µM
  TGI: 5.17 µM
[31]
  GI50: 1.24 µM
  TGI: 3.53 µM
[32]
  GI50: 1.9 µM
  TGI: 23.4 µM
[33]
  GI50: 1.14 µM
  TGI: 3.02 µM
[34]
  GI50: 2.34 µM
  TGI: 5.14 µM
[35]
  GI50: 1.83 µM
  TGI: 4.11 µM
[36]
  GI50: 1.3 µM
  TGI: 5.58 µM
[37]
  GI50: 0.855 µM
  TGI: 2.97 µM
[38]
  GI50: 0.707 µM
  TGI: 2.13 µM
[39]
  GI50: 1.64 µM
  TGI: 3.18 µM
[40]
  GI50: 2.02 µM
  TGI: 5.46 µM
[58]
  GI50: 2.06 µM
  TGI: 4.72 µM
[41]
  GI50: 1.95 µM
  TGI: 4.07 µM
[42]
  GI50: 4.07 µM
  TGI: 12.4 µM
[43]
  GI50: 1.85 µM
  TGI: 4.1 µM
[44]
  GI50: 1.73 µM
  TGI: 3.26 µM
[45]
  GI50: 5.22 µM
  TGI: 11.5 µM
[46]
  GI50: 1.2 µM
  TGI: 3.64 µM
[47]
  GI50: 1.53 µM
  TGI: 4.1 µM
[48]
  GI50: 2.29 µM
  TGI: 7.5 µM
[49]
  GI50: 0.197 µM
  TGI: > 100 µM
[50]
  GI50: 0.375 µM
  TGI: 1.07 µM
[51]
  GI50: 2.56 µM
  TGI: 9.55 µM
[52]
  GI50: 2.21 µM
  TGI: 6.1 µM
[53]
  GI50: 0.63 µM
  TGI: 2.09 µM
[54]
  GI50: 2.4 µM
  TGI: 7.05 µM
[55]
  GI50: 0.84 µM
  TGI: 2.41 µM
[56]
  GI50: 1.37 µM
  TGI: 2.84 µM
